Data taken from PubChem BioAssay AID1963846 (Molecular Pharmacology Branch, DTP, NCI, 2024).
Where “and” joins values, the source holds several entries; their conditions need not be identical. Equal values may be shown once.

Tested on: 454973-116-R2-J3-PDC complex spheroid viability
Test: Anticancer human tumor 454973-116-R2-J3-PDC patient-derived pancreatic carcinoma cell line growth inhibition [POLQ]
Details: for viability, T/C: stronger effect = lower value
Procedure: Multicellular complex tumor spheroid response to Polymerase (POL) inhibitors (novobiocin, ART-558, RP6685) in combination with a variety of drugs and investigational agents in selected tumor cell lines
The POL inhibitors (novobiocin, ART-558, and RP6685) were evaluated both individually and in combination with standard of care and investigational anticancer small molecules within a complex spheroid model of solid tumors. . Complex spheroids include a stromal component modeled by human endothelial cells (HUVEC) and fibroblasts modeled by human mesenchymal stem cells (MSCs). The concentration ranges selected for each drug and investigational agent were based upon clinically achievable concentrations if the clinical Cmax of the agent was known.
Compounds. The drugs and investigational agents: novobiocin (NSC847541), ART-558 (NSC835418), RP-6685 (NSC848927), peposertib (NSC802822), ceralasertib (NSC780249), elimusertib (NSC800525), camonsertib (NSC841442), AZD-1390 (NSC803789), olaparib (NSC753686), talazoparib (NSC767125), rucaparib (NSC756644), sotorasib (NSC818433), MRTX-1133 (NSC836407), SN-38 (NSC673596), topotecan (NSC609699), epotoside (NSC141540), doxorubicin (NSC123127), gemcitabine (NSC613327), 5-fluorouracil (NSC19893), paclitaxel (NSC125973), vemurafenib (NSC761431), MSA-2 (NSC828583), SN-011 (NSC837082), adavosertib (NSC754352), prexasertib (NSC758257), carboplatin (NSC241240) and oxaliplatin (NSC266046), were obtained from the National Cancer Institute (NCI) Developmental Therapeutics Program Chemical Repository (21). The FDA-approved anticancer drug set is available from the Developmental Therapeutics Program at https://dtp.cancer.gov/organization/dscb/obtaining/. […] The stock solutions were prepared in dimethyl sulfoxide (DMSO, Sigma-Aldrich, St. Louis, MO, cat. D2650), except for the platinum compounds which were prepared in saline (Quality Biological, Gaithersburg, MD, cat. 114-055-101), at 800-fold the tested concentration and stored at -70 degrees C prior to their use. All drugs and investigational agents were tested over a range starting from a high concentration at or near the clinical Cmax and decreasing in half-log increments. If the clinical Cmax for an agent had not been determined, the highest concentration tested was 10 microM, except for SN-38, which was tested at a high concentration of 1 microM.
Cell Culture. All cells were maintained in an incubator at 37 degrees C and 5% CO2 with 95% humidity. The PDC lines were cultured according to standard operating procedures established by the NCI PDMR (https://pdmr.cancer.gov). Table 3 of the manuscript, lists the cell lines along with the number of the three cell types plated to form the mct-spheroids and media for tumor cell growth. After thawing, all PDC lines, except 997537-175-T-J1-PDC and 415267-285-R-J2-PDC, were cultured in Matrigel-coated flasks prepared with a working solution of 1X Ham's F-12 nutrient mix, without supplementation (Thermo Fisher Scientific, cat. 11765054), 100 U/mL penicillin-streptomycin (Thermo Fisher Scientific, cat. 15140122), and 2.5% Matrigel (Corning Inc., Corning, NY, cat. 354248) for the first three passages. The two PDC lines 997537-175-T-J1-PDC and 415267-285-R-J2-PDC were cultured on uncoated flasks. The 857933-349-R-J2-PDC line was cultured in 6C/Colon 1B media containing advanced DMEM/F-12 (Thermo Fisher Scientific, cat. 12634028), 10 mM HEPES (Thermo Fisher Scientific, cat. 15630080), 1X GlutaMAX supplement (Thermo Fisher Scientific, cat. 35050061), 0.1 mg/mL primocin (InvivoGen, San Diego, CA, cat. ant-pm-2), 10% defined fetal bovine serum, heat inactivated (HyClone Laboratories Inc., Logan, UT, cat. SH30070.03HI), 50% L-WRN conditioned media (ATCC, cat. CRL-3276), 1.25 mM N-Acetyl-L-cysteine (Sigma-Aldrich, cat. A9165), 10 mM nicotinamide (Sigma-Aldrich, cat. N0636), 1X B-27 supplement (Thermo Fisher Scientific, cat. 17504044), 1X N-2 supplement (Thermo Fisher Scientific, cat. […]
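Also: spheroids exposed to drugs for seven days before measurement.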
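For viability, T/C in this document: percent viability relative to DMSO vehicle control wells taken as 100%.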

Structure (SMILES): CCc1cc2c(N3CCc4c(cc(Cn5ccnc5)cc4-c4cn(C)nc4C(F)(F)F)C3=O)cc(C)nc2c(OC)n1
- viability, T/C (compound 0.0316 µM): 110% and 99.6% and 98.9%
- viability, T/C (compound 0.1 µM): 92% and 79.7% and 87.1%
- viability, T/C (compound 0.316 µM): 88.2% and 81.7% and 79.3%
- viability, T/C (compound 1 µM): 89.3% and 74.5% and 69.2%
- viability, T/C (compound 3.16 µM): 87% and 76.7% and 72.6%
- viability, T/C (compound 10 µM): 71.6% and 58.8% and 56.6%
- IC50 (curve of compound): > 10000 nM

Structure (SMILES): CC1COCCN1c1cc(C2(O)CC3CCC(C2)O3)c2cnn(-c3ccn[nH]3)c2n1 (stereo not given)
- viability, T/C (compound 0.0316 µM): 100% and 99.2% and 87.4%
- viability, T/C (compound 0.1 µM): 71.6% and 69.7% and 51.4%
- viability, T/C (compound 0.316 µM): 29.2% and 34.4% and 21.1%
- viability, T/C (compound 1 µM): 24.1% and 25.3% and 11.3%
- viability, T/C (compound 3.16 µM): 23.8% and 24.9% and 15.1%
- viability, T/C (compound 10 µM): 14.6% and 14.2% and 9.62%
- IC50 (curve of compound): 181 nM and 194 nM and 106 nM

Structure (SMILES): COc1cccc(OCCCN)c1-c1cc(Nc2cnc(C#N)cn2)n[nH]1
- viability, T/C (compound 0.00316 µM): 99.7% (2×) and 101%
- viability, T/C (compound 0.01 µM): 70.4% and 75.3% and 73%
- viability, T/C (compound 0.0316 µM): 7.56% and 10.8% and 14.6%
- viability, T/C (compound 0.1 µM): 5.87% and 6.45% and 6.4%
- viability, T/C (compound 0.316 µM): 4.59% and 5.13% and 4.47%
- viability, T/C (compound 1 µM): 4.4% and 5.18% and 4.15%
- IC50 (curve of compound): 14.5 nM and 15.7 nM and 15.8 nM

Structure (SMILES): CCc1c2c(nc3ccc(O)cc13)-c1cc3c(c(=O)n1C2)COC(=O)[C@]3(O)CC
- viability, T/C (compound 0.00316 µM): 34.1% and 23.5% and 36.2%
- viability, T/C (compound 0.01 µM): 12.7% and 10.6% and 14.8%
- viability, T/C (compound 0.0316 µM): 13% (2×) and 7.69%
- viability, T/C (compound 0.1 µM): 5.61% and 3.22% and 6.06%
- viability, T/C (compound 0.316 µM): 2.43% and 3.16% and 3.18%
- viability, T/C (compound 1 µM): 1.57% and 1.32% and 2.53%
- IC50 (curve of compound): < 3.16 nM

Structure (SMILES): CC1COCCN1c1cc(-c2ccnn2C)c2ccnc(-c3ccn[nH]3)c2n1 (stereo not given) + Cc1cccc(N(C)C(=O)C2C(O)CCN2c2nc(C)cc(C(F)(F)F)c2C#N)c1
- IC50 (curve of first compound, second compound 0.0316 µM): 207 nM
- IC50 (curve of first compound, second compound 0.1 µM): 202 nM
- IC50 (curve of first compound, second compound 0.316 µM): 198 nM
- IC50 (curve of first compound, second compound 1 µM): 195 nM
- IC50 (curve of first compound, second compound 3.16 µM): 192 nM
- IC50 (curve of first compound, second compound 10 µM): 181 nM
- viability, T/C (second compound 0.0316 µM, first compound 0.0316 µM): 95.3%
- viability, T/C (second compound 0.0316 µM, first compound 0.1 µM): 73.4%
- viability, T/C (second compound 0.0316 µM, first compound 0.316 µM): 37%
- viability, T/C (second compound 0.0316 µM, first compound 1 µM): 21.7%
- viability, T/C (second compound 0.0316 µM, first compound 3.16 µM): 22.3%
- viability, T/C (second compound 0.0316 µM, first compound 10 µM): 25.4%
- viability, T/C (second compound 0.1 µM, first compound 0.0316 µM): 92.6%
- viability, T/C (second compound 0.1 µM, first compound 0.1 µM): 74.4%
- viability, T/C (second compound 0.1 µM, first compound 0.316 µM): 35%
- viability, T/C (second compound 0.1 µM, first compound 1 µM): 20.8%
- viability, T/C (second compound 0.1 µM, first compound 3.16 µM): 21.3%
- viability, T/C (second compound 0.1 µM, first compound 10 µM): 27.8%
- viability, T/C (second compound 0.316 µM, first compound 0.0316 µM): 97.2%
- viability, T/C (second compound 0.316 µM, first compound 0.1 µM): 73.3%
- viability, T/C (second compound 0.316 µM, first compound 0.316 µM): 34.5%
- viability, T/C (second compound 0.316 µM, first compound 1 µM): 20%
- viability, T/C (second compound 0.316 µM, first compound 3.16 µM): 20.1%
- viability, T/C (second compound 0.316 µM, first compound 10 µM): 25%
- viability, T/C (second compound 1 µM, first compound 0.0316 µM): 105%
- viability, T/C (second compound 1 µM, first compound 0.1 µM): 71.7%
- viability, T/C (second compound 1 µM, first compound 0.316 µM): 35.3%
- viability, T/C (second compound 1 µM, first compound 1 µM): 21.3%
- viability, T/C (second compound 1 µM, first compound 3.16 µM): 22%
- viability, T/C (second compound 1 µM, first compound 10 µM): 25.4%
- viability, T/C (second compound 3.16 µM, first compound 0.0316 µM): 113%
- viability, T/C (second compound 3.16 µM, first compound 0.1 µM): 71.8%
- viability, T/C (second compound 3.16 µM, first compound 0.316 µM): 34.1%
- viability, T/C (second compound 3.16 µM, first compound 1 µM): 21.7%
- viability, T/C (second compound 3.16 µM, first compound 3.16 µM): 21.8%
- viability, T/C (second compound 3.16 µM, first compound 10 µM): 26.4%
- viability, T/C (second compound 10 µM, first compound 0.0316 µM): 97.9%
- viability, T/C (second compound 10 µM, first compound 0.1 µM): 67.7%
- viability, T/C (second compound 10 µM, first compound 0.316 µM): 34.2%
- viability, T/C (second compound 10 µM, first compound 1 µM): 19.5%
- viability, T/C (second compound 10 µM, first compound 3.16 µM): 24.4%
- viability, T/C (second compound 10 µM, first compound 10 µM): 23.1%
